Where no end group is shown, it is not given here.

For one experiment, the system named is CpGs of the Fas-L gene. Briefly: Peptide library screening: methylation status of CpGs in a T-cell line. The experiment is classed as cell-based. The conditions noted are these: 10 days, versus untreated control. As for the experimental part: A peptide library was prepared in a 96-well culture plate which contained overlapping peptide fragments derived from the peptide sequence of human serum albumine (HSA). As positive controls, each of vasoactive intestinal peptide (VIP) and pituitary adenylate cyclase-activating polypeptide (PACAP) was added in one of the wells.
A T-cell line (example?) was incubated together with the peptides and VIP or PACAP. After 10 days, the cells of the VIP/PACAP and HSA peptide treated as well as untreated control cell line cultures were collected by centrifugation and the chromosomal DNA was prepared using QIAamp DNA Mini Kit as recommended by the manufacturer (Quiagen, Hilden, Germany).
Subsequently, the chromosomal DNAs were bisulphite treated as published, for example, according to Olek et al. 6 different multiplex PCR reactions were performed on the 3 bisulphite DNA samples (untreated control, HSA and VIP/PACAP treated samples) using Cy5-labelled primer. The products of the methylation specific PCR reactions performed on the same DNA samples were combined. These complex mixtures of 64 PCR products derived from the three DNA samples were comparatively hybridised onto oligo micro arrays representing 256 CpG and the methylation statuses of the CpGs were analysed according to a method described in WO 99/28498.

In the next experiment the test system is T cells. The conditions noted are these: through down-regulation of Fas ligand (FasL); cited from earlier work.

Take “pituitary adenylate cyclase-activating polypeptide (HSDGIFTDSYSRYRKQMAVKKYLAAVLGKRYKQRVKNK; ends and bridges not checked; UniProt P18509 132-169, looked up) [PACAP, positive control peptide]”: the “methylation status of CpGs of the Fas-L gene” value with CpGs of the Fas-L gene is “significantly changed”. In addition, the “protection of T cells from activation-induced cell death” value in the experiment with T cells is “protect T cells from activation-induced cell death”.

For “vasoactive intestinal peptide (HSDAVFTDNYTRLRKQMAVKKYLNSILN; ends and bridges not checked; UniProt P01282 125-152, looked up) [VIP, positive control peptide]”, in the experiment on CpGs of the Fas-L gene, the “methylation status of CpGs of the Fas-L gene” value is listed as “significantly changed”. The “protection of T cells from activation-induced cell death” value in the experiment with T cells was “protect T cells from activation-induced cell death”.

The values are drawn from US7756643B2, “Method for determining the biological effect and/or activity of at least one drug, chemical substances and/or pharmaceutical composition based on their effect on the methylation status of DNA” (Epigenomics AG, priority 2001, dated 2010).
